Measured values from US8569241B2, “Composition for improving brain function and method for improving brain function” (Calpis Co., Ltd., priority 2009, dated 2013).

Columns and labels:
Assay type in all cases: in vivo
[1] = tested on: scopolamine-induced amnesia; experiment: Y-shaped maze test, spontaneous alternation behavior, scopolamine-induced amnesia; settings: once orally 60 min before test, ddY mice
Method: Male mice (n=15 to 75) of the ddY strain (approximately 7-week old) were used, and they received food and water ad lib. Test substances used were 0.05 nmol/kg weight (0.1 μg/kg weight), 0.5 nmol/kg weight (1 μg/kg weight), 1.5 nmol/kg weight (3 μg/kg weight), 5 nmol/kg weight (10 μg/kg weight), 50 nmol/kg weight (100 μg/kg weight), and 500 nmol/kg weight (1000 μg/kg weight) of Asn-Ile-Pro-Pro-Leu-Thr-Gln-Thr-Pro-Val-Val-Val-Pro-Pro-Phe-Leu-Gln-Pro-Glu. The test substances were administered to the mice once orally 60 minutes before the execution of a Y-shaped maze test for evaluation of spontaneous alternation behavior. Further, 30 minutes before the execution of the Y-shaped maze test, 1 mg/kg weight of scopolamine was subcutaneously administered on the backs of the mice in order to induce brain dysfunction (dysmnesia and/or cognitive impairment) in the mice. In the Y-shaped maze test, a Y-shaped maze was used as an experimental device, in which the length of each arm was 40 cm, the height of the wall was 12 cm, the width of the floor was 3 cm, and the width of the upper part was 10 cm, and three arms were connected to each other at an angle of 120 degrees. Each of the mice was placed at the tip of any one of the arms of the Y-shaped maze, and then let go to freely explore in the maze for 8 minutes. The sequence of the arms each of the mice entered was recorded. The number of entries by each of the mice for each of the arms during the measurement time was counted to be the total number of entries. In the sequence, the combination in which three different arms were selected in succession (for example, with the three arms respectively called A, B, and C, if the sequence of the arms entered is ABCBACACB, the count is 4 inclusive of overlapping) was investigated, and the number of the count was used as the number of spontaneous alternation behavior. The percentage of spontaneous alternation behavior was calculated by dividing the number of spontaneous alternation behavior by a number obtained by subtracting 2 from the total number of entries, and multiplying a resultant number by 100. The percentage of spontaneous alternation behavior was used as an indicator. […] The measured values were expressed in the form of mean±standard error for each group. A significant difference between the control group and the scopolamine control group was calculated using Student's t-test. Further, a significant difference between the scopolamine control group and the NIPPLTQTPVVVPPFLQPE-administered groups was calculated using Dunnett's multiple comparison test after one-way analysis of variance.
Male mice (n=15 to 45) of the ddY strain (approximately 7-week old) were used, and they received food and water ad Iib. Test substances used were: 50 nmol/kg weight (100 μg/kg weight) of Asn-Ile-Pro-Pro-Leu-Thr-Gln-Thr-Pro-Val-Val-Val-Pro-Pro-Phe-Leu-Gln-Pro-Glu; 50 nmol/kg weight (120 μg/kg weight) of […]([…]); 50 nmol/kg weight (100 μg/kg weight) of Ile-Pro-Pro-Leu-Thr-Gln-Thr-Pro-Val-Val-Val-Pro-Pro-Phe-Leu-Gln-Pro-Glu (IPPLTQTPVVVPPFLQPE); 50 nmol/kg weight (100 μg/kg weight) of Asn-Ile-Pro-Pro-Leu-Thr-Gln-Thr-Pro-Val-Val-Val-Pro-Pro-Phe-Leu-Gln-Pro (NIPPLTQTPVVVPPFLQP) (SEQ ID NO: 18); and 50 nmol/kg weight (50 μg/kg weight) of Thr-Gln-Thr-Pro-Val-Val-Val-Pro-Pro-Phe (TQTPVVVPPF) (SEQ ID NO: 19). The test substances were administered to the mice once orally 60 minutes before the execution of a Y-shaped maze test for evaluation of spontaneous alternation behavior. Further, 30 minutes before the execution of the Y-shaped maze test, 1 mg/kg weight of scopolamine was subcutaneously administered on the backs of the mice in order to induce brain dysfunction (dysmnesia and/or cognitive impairment) in the mice. […]

[2] = tested on: scopolamine-induced amnesia; experiment: as above; settings: once orally 60 min before test, scopolamine 1 mg/kg s.c., ddY mice
memory maintenance = experiment: novel object recognition test for evaluation of memory maintenance; settings: Example 4, FIG. 4; 500 nmol/kg weight (1000 μg/kg weight), once orally 60 min before training trial; retention trial 48 hours later; ddY mice
Method: Male mice (n=14 to 15) of the ddY strain (approximately 7-week old) were used, and they received food and water ad lib. A test substance used was 500 nmol/kg weight (1000 μg/kg weight) of Asn-Ile-Pro-Pro-Leu-Thr-Gln-Thr-Pro-Val-Val-Val-Pro-Pro-Phe-Leu-Gln-Pro-Glu. The test substance was administered to the mice once orally 60 minutes before the execution of a novel object recognition test for evaluation of memory maintenance. In the novel object recognition test, a 30 cm x30 cm x30 cm box was used as an experimental device. For acclimation, each of the mice was placed in the experimental device with floor bedding for 5 minutes, and then allo the aminals to go around freely in the device. On the next day of the acclimation treatment, a training trial was performed. In the training trial, two among three kinds of objects were selected and disposed in the experimental device (the objects were arranged along the central line of the floor at positions 8 cm away from the walls on two sides, and the positions were designated as X1 and X2). […] In the training trial and the retention trial, the time (seconds) the mice spent exploring each object by approaching within 1 cm therefrom was measured (except the time when the mice were riding on the object). For each of the training trial and the retention trial, an exploration time ratio between the two objects was calculated. […]

[3] = Example 2, FIG. 2, 50 nmol/kg weight, scopolamine 1 mg/kg s.c., Dunnett's test vs scopolamine control
[4] = Example 6, FIG. 6, 500 nmol/kg weight, Student's t-test
[5] = Example 3, FIG. 3, 500 nmol/kg weight (1000 μg/kg weight), Dunnett's test

Sequence | prophylactic activity against amnesia (percentage of spontaneous alternation behavior) [1, 3] | prophylactic activity against amnesia (percentage of spontaneous alternation behavior) [2, 4] | other results
NIPPLTQTPVVVPPFLQP (Synthetic comparative example) [Asn-Ile-Pro-Pro-Leu-Thr-Gln-Thr-Pro-Val-Val-Val-Pro-Pro-Phe-Leu-Gln-Pro] | did not show any prophylactic activity against amnesia | – | –
IPPLTQTPVVVPPFLQPE (Synthetic functional peptide) [Ile-Pro-Pro-Leu-Thr-Gln-Thr-Pro-Val-Val-Val-Pro-Pro-Phe-Leu-Gln-Pro-Glu] | had a prophylactic activity against amnesia | – | –
PLTQTPVVVPPFLQPE (Synthetic functional peptide) [Pro-Leu-Thr-Gln-Thr-Pro-Val-Val-Val-Pro-Pro-Phe-Leu-Gln-Pro-Glu] | – | had a prophylactic activity against amnesia | –
NIPPLTQTPVVVPPFLQPE (Synthetic functional peptide) [Asn-Ile-Pro-Pro-Leu-Thr-Gln-Thr-Pro-Val-Val-Val-Pro-Pro-Phe-Leu-Gln-Pro-Glu] | had a prophylactic activity against amnesia | – | prophylactic activity against amnesia (percentage of spontaneous alternation behavior) ([1]; Example 1, FIG. 1, 0.05 nmol/kg weight to 500 nmol/kg weight (0.1 to 1000 μg/kg weight), scopolamine 1 mg/kg s.c. 30 min before, Dunnett's test): had a prophylactic activity against amnesia; memory strengthening activity (exploration time ratio of novel object) (memory maintenance): had a memory strengthening activity; prophylactic activity against amnesia (percentage of spontaneous alternation behavior) [2, 5]: had a prophylactic activity against amnesia
PVVVPPFLQPE (Synthetic functional peptide) [Pro-Val-Val-Val-Pro-Pro-Phe-Leu-Gln-Pro-Glu] | – | had a prophylactic activity against amnesia | –
VVVPPFLQPE (Synthetic functional peptide) [Val-Val-Val-Pro-Pro-Phe-Leu-Gln-Pro-Glu] | – | had a prophylactic activity against amnesia | –
PPLTQTPVVVPPFLQPE (Synthetic functional peptide) [Pro-Pro-Leu-Thr-Gln-Thr-Pro-Val-Val-Val-Pro-Pro-Phe-Leu-Gln-Pro-Glu] | – | – | prophylactic activity against amnesia (percentage of spontaneous alternation behavior) [2, 5]: had a prophylactic activity against amnesia
LTQTPVVVPPFLQPE (Synthetic functional peptide) [Leu-Thr-Gln-Thr-Pro-Val-Val-Val-Pro-Pro-Phe-Leu-Gln-Pro-Glu] | – | had a prophylactic activity against amnesia | –
TQTPVVVPPF (Synthetic comparative example) [Thr-Gln-Thr-Pro-Val-Val-Val-Pro-Pro-Phe] | did not show any prophylactic activity against amnesia | – | –
NIPPLTQTPVVVPPFLQPEVM (Synthetic functional peptide) | had a prophylactic activity against amnesia | – | –
TQTPVVVPPFLQPE (Synthetic functional peptide) [Thr-Gln-Thr-Pro-Val-Val-Val-Pro-Pro-Phe-Leu-Gln-Pro-Glu] | – | – | prophylactic activity against amnesia (percentage of spontaneous alternation behavior) ([2]; Example 5, FIG. 5, 50 nmol/kg weight (80 μg/kg weight), Student's t-test): had a prophylactic activity against amnesia
